US20260098034A1, “2H-BENZOTRIAZOLE DERIVATIVE, PREPARATION METHOD THEREFOR, AND PHARMACEUTICAL COMPOSITION CONTAINING SAME” (ORXES THERAPEUTICS CO., LTD., priority 2022, published 2026)
“And” between values parts separate entries of the source, which are not always exact repeats. Identical values can stand only once.

Test system: Wistar rats
Test: PCA-induced Wistar rat premature ejaculation model
Format: in vivo
Details: for Actual number of ejaculations / Number of the seminal vesicle contractions / Seminal vesicle basal pressure / Seminal vesicle peak pressure / The first contraction latency period / The first ejaculation latency period: within 30 min after PCA induction, individual rats; for latency period of initial seminal vesicle contraction compared with the PE model group: FIG. 4
Description: Male Wistar rats with a weight of about 300 g were adapted for one week before the experiment was started. On the day of the experiment, the animals were anesthetized with a combination of 20 mg/kg of Zoletil 50 via i.p. and 8 mg/kg of xylazine via i.p., and the body temperature was maintained at 37° C. with a thermal insulation blanket. Exposed common carotid artery was intubated with PE50 to monitor real-time arterial pressure (i.e. systolic pressure, diastolic pressure, and mean arterial pressure). The seminal vesicles and cavernosal muscles of the animals were exposed. The stable baselines of the pressure of the seminal vesicle and the cavernosal myoelectricity were recorded for 10 min. Then the drug was administered through the tail vein for the dapoxetine group, and the tested compound was orally administered for the tested compound group (for the PE model group, the drug was replaced with a solvent). After 1 min, for inducing PE modeling, 5 mg/kg of PCA was injected intraperitoneally, and then the seminal vesicle pressure curve and the change of bulbospongiosus EMG were continuously recorded for 30 min.
• A. Within 30 min, the actual number of ejaculations of the animals and the latency period of the first ejaculation; • B. Within 30 min, the number of the seminal vesicle contractions, the latency period of the first contraction, the basal pressure and the peak pressure.
The experimental data were expressed by means±S.E.M., and statistical analysis was performed by GraphPad Prism 7.0 software. Single factor variance analysis (One-way ANOVA) was used for comparison between multiple groups, and Dunnett't-test was used for statistical analysis in Post hoc test. Student's t-test was used for comparison between two groups. P<0.05 was considered as a significant difference.

[1] = 0.125 mg/kg p.o. + PCA 5 mg/kg i.p.
[2] = 0.5 mg/kg p.o. + PCA 5 mg/kg i.p.
[3] = 2 mg/kg p.o. + PCA 5 mg/kg i.p.

Row | SMILES | Actual number of ejaculations [1] | Number of the seminal vesicle contractions [1] | Seminal vesicle basal pressure [1] | Seminal vesicle peak pressure [1] | The first contraction latency period [1] | The first ejaculation latency period [1] | Actual number of ejaculations [2] | Number of the seminal vesicle contractions [2] | Seminal vesicle basal pressure [2] | Seminal vesicle peak pressure [2] | The first contraction latency period [2] | The first ejaculation latency period [2] | Actual number of ejaculations [3] | Number of the seminal vesicle contractions [3] | Seminal vesicle basal pressure [3] | Seminal vesicle peak pressure [3] | The first contraction latency period [3] | The first ejaculation latency period [3] | also measured
1 | c1ccc2nn(CCCCN3CCN(c4noc5ccccc45)CC3)nc2c1 [Compound A001] | 8 and 9 and 11 (2×) and 10 | 10 and 11 and 12 and 13 and 16 | 6.69 mmHg and 7.04 mmHg and 7.28 mmHg and 6.91 mmHg and 7.78 mmHg | 17.17 mmHg and 21.45 mmHg and 22.67 mmHg and 23.39 mmHg and 20.58 mmHg | 784 s and 788 s and 605 s and 517 s and 839 s | 996 s and 726 s and 766 s and 823 s and 969 s | 0 (2×) and 2 (2×) and 3 | 0 (2×) and 5 and 4 and 6 | 3.88 mmHg and 4.19 mmHg and 5.77 mmHg and 5.08 mmHg and 5.68 mmHg | 4.89 mmHg and 5.09 mmHg and 11.06 mmHg and 16.57 mmHg and 14.89 mmHg | 1800 s (2×) and 1298 s and 1147 s and 1125 s | 1800 s (2×) and 1399 s and 1311 s and 1291 s | 2 and 0 (4×) | 4 and 0 and 1 (3×) | 6.88 mmHg and 4.68 mmHg and 4.38 mmHg and 4.92 mmHg and 3.98 mmHg | 18.65 mmHg and 6.99 mmHg and 6.07 mmHg and 7.32 mmHg and 6.05 mmHg | 968 s and 1800 s and 1687 s and 1774 s and 1629 s | 1055 s and 1800 s (4×) | 
2 | Fc1ccc2c(C3CCN(CCCn4nc5ccccc5n4)CC3)noc2c1 [Compound A002] | 2 (2×) and 6 and 3 and 5 | 5 (2×) and 6 (2×) and 3 | 5.88 mmHg and 6.10 mmHg and 6.02 mmHg and 4.66 mmHg and 3.97 mmHg | 12.33 mmHg and 16.17 mmHg and 18.07 mmHg and 12.06 mmHg and 9.88 mmHg | 1266 s and 833 s and 825 s and 1198 s and 1499 s | 1422 s and 933 s and 966 s and 1276 s and 1345 s | 2 and 3 and 1 and 0 (2×) | 3 and 4 and 2 and 0 (2×) | 5.76 mmHg and 5.88 mmHg and 5.79 mmHg and 3.67 mmHg and 3.87 mmHg | 12.54 mmHg and 11.66 mmHg and 7.05 mmHg and 4.27 mmHg and 5.11 mmHg | 1176 s and 1307 s and 1355 s and 1800 s (2×) | 1233 s and 1346 s and 1432 s and 1800 s (2×) | 0 | 2 and 0 (4×) | 4.15 mmHg and 4.12 mmHg and 4.85 mmHg and 4.11 mmHg and 3.93 mmHg | 8.87 mmHg and 6.08 mmHg and 5.09 mmHg and 4.77 mmHg and 5.03 mmHg | 1568 s and 1800 s (4×) | 1800 s | latency period of initial seminal vesicle contraction compared with the PE model group (high dose group (2.0 mg/kg p.o.)): significant increase; latency period of initial seminal vesicle contraction compared with the PE model group (low dose group (0.125 mg/kg p.o.), P>0.05): no statistically significant differences; latency period of initial seminal vesicle contraction compared with the PE model group (medium dose group (0.5 mg/kg p.o.)): significant increase
3 | Fc1ccc2c(C3CCN(CCCCn4nc5ccccc5n4)CC3)noc2c1 [Compound A003] | 0 (2×) and 4 (2×) and 5 | 3 (2×) and 8 (2×) and 7 | 3.97 mmHg and 3.78 mmHg and 5.98 mmHg and 5.59 mmHg and 5.17 mmHg | 4.08 mmHg and 4.25 mmHg and 16.58 mmHg and 14.17 mmHg and 18.06 mmHg | 1458 s and 1525 s and 707 s and 658 s and 735 s | 1800 s (2×) and 865 s and 778 s and 806 s | 6 (2×) and 2 and 0 (2×) | 9 (2×) and 5 and 0 (2×) | 5.88 mmHg and 6.03 mmHg and 5.19 mmHg and 3.9 mmHg and 4.2 mmHg | 18.97 mmHg and 20.11 mmHg and 12.84 mmHg and 4.09 mmHg and 4.76 mmHg | 778 s and 814 s and 1009 s and 1800 s (2×) | 845 s and 903 s and 1175 s and 1800 s (2×) | 0 | 1 and 0 (4×) | 4.65 mmHg and 4.17 mmHg and 4.55 mmHg and 4.62 mmHg and 3.92 mmHg | 8.13 mmHg and 5.24 mmHg and 4.9 mmHg and 4.89 mmHg and 4.86 mmHg | 1623 s and 1800 s (4×) | 1800 s | 
4 | c1ccc2nn(CCCN3CCN(c4nsc5ccccc45)CC3)nc2c1 [Compound A004] | 0 (2×) and 3 and 6 and 4 | 3 and 4 and 8 and 6 and 2 | 4.09 mmHg and 5.98 mmHg and 5.59 mmHg and 5.17 mmHg and 4.18 mmHg | 4.21 mmHg and 13.38 mmHg and 16.13 mmHg and 15.05 mmHg and 4.25 mmHg | 1400 s and 797 s and 757 s and 735 s and 1525 s | 1800 s (2×) and 865 s and 678 s and 806 s | 5 and 6 and 2 and 0 (2×) | 7 and 8 and 3 and 0 (2×) | 5.89 mmHg and 6.07 mmHg and 5.18 mmHg and 3.99 mmHg and 4.32 mmHg | 17.95 mmHg and 29.19 mmHg and 13.88 mmHg and 4.79 mmHg and 4.77 mmHg | 798 s and 819 s and 1009 s and 1800 s (2×) | 845 s and 903 s and 1175 s and 1800 s (2×) | 0 | 0 | 4.68 mmHg and 4.67 mmHg and 4.65 mmHg and 4.66 mmHg and 3.97 mmHg | 5.18 mmHg and 5.26 mmHg and 4.96 mmHg and 4.79 mmHg and 4.87 mmHg | 1800 s | 1800 s | 
5 | Fc1ccc2c(N3CCN(CCCn4nc5ccccc5n4)CC3)noc2c1 [Compound A005] | 0 (2×) and 4 (2×) and 5 | 2 and 3 and 6 and 8 and 7 | 3.99 mmHg and 3.98 mmHg and 5.98 mmHg and 5.59 mmHg and 5.18 mmHg | 4.09 mmHg and 4.29 mmHg and 16.56 mmHg and 17.17 mmHg and 18.08 mmHg | 1458 s and 1525 s and 707 s and 658 s and 738 s | 1800 s (2×) and 965 s and 878 s and 806 s | 5 (2×) and 3 and 0 (2×) | 6 and 7 and 4 and 0 (2×) | 5.89 mmHg and 6.05 mmHg and 5.15 mmHg and 3.93 mmHg and 4.22 mmHg | 18.99 mmHg and 19.11 mmHg and 12.85 mmHg and 4.09 mmHg and 4.76 mmHg | 778 s and 855 s and 1005 s and 1800 s (2×) | 845 s and 903 s and 1175 s and 1800 s (2×) | 0 | 0 (4×) and 1 | 4.16 mmHg and 4.27 mmHg and 4.65 mmHg and 4.32 mmHg and 3.93 mmHg | 5.26 mmHg and 5.22 mmHg and 7.15 mmHg and 4.83 mmHg and 4.89 mmHg | 1800 s (4×) and 1655 s | 1800 s | 
6 | Fc1ccc2c(N3CCN(CCCCn4nc5ccccc5n4)CC3)noc2c1 [Compound A006] | 0 and 1 and 4 (2×) and 5 | 2 (2×) and 7 (2×) and 8 | 3.93 mmHg and 3.88 mmHg and 5.98 mmHg and 5.79 mmHg and 5.18 mmHg | 4.11 mmHg and 4.21 mmHg and 16.58 mmHg and 15.19 mmHg and 17.07 mmHg | 1453 s and 1325 s and 707 s and 758 s and 738 s | 1800 s and 1330 s and 877 s and 798 s and 808 s | 6 and 4 and 2 and 0 (2×) | 8 and 6 and 3 and 0 (2×) | 5.86 mmHg and 6.06 mmHg and 5.12 mmHg and 3.91 mmHg and 4.25 mmHg | 18.66 mmHg and 20.61 mmHg and 12.89 mmHg and 4.19 mmHg and 4.79 mmHg | 899 s and 816 s and 1022 s and 1800 s (2×) | 855 s and 903 s and 1175 s and 1800 s (2×) | 0 | 0 (4×) and 1 | 4.66 mmHg and 4.16 mmHg and 4.65 mmHg and 4.67 mmHg and 3.98 mmHg | 5.13 mmHg and 5.28 mmHg and 4.97 mmHg and 4.79 mmHg and 7.87 mmHg | 1800 s (4×) and 1660 s | 1800 s | 
